Source: PubChem BioAssay (NCI)
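Method: 48-hour compound exposure of cells in 96-well plates, five concentrations, linear interpolation of endpoints. TGI denotes the concentration required for complete inhibition of growth.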

Key:
Assay in all cases: NCI tumour cell line growth inhibition, 48 h
SN12C renal = test system: SN12C renal
LOX IMVI melanoma = test system: LOX IMVI melanoma
UACC-257 melanoma = test system: UACC-257 melanoma
HT29 colon = test system: HT29 colon
HL-60(TB) leukemia = test system: HL-60(TB) leukemia
MCF7 breast = test system: MCF7 breast
HS 578T breast = test system: HS 578T breast
IGROV1 ovarian = test system: IGROV1 ovarian
NCI/ADR-RES ovarian = test system: NCI/ADR-RES ovarian
K-562 leukemia = test system: K-562 leukemia
SK-MEL-28 melanoma = test system: SK-MEL-28 melanoma
SK-MEL-2 melanoma = test system: SK-MEL-2 melanoma
SR leukemia = test system: SR leukemia
MDA-MB-231 breast = test system: MDA-MB-231 breast
MOLT-4 leukemia = test system: MOLT-4 leukemia
MDA-N = test system: MDA-N
KM12 colon = test system: KM12 colon
SF-539 CNS = test system: SF-539 CNS
A498 renal = test system: A498 renal

Row | SMILES | TGI (SN12C renal) [µM] | TGI (LOX IMVI melanoma) [µM] | TGI (UACC-257 melanoma) [µM] | TGI (HT29 colon) [µM] | TGI (HL-60(TB) leukemia) [µM] | TGI (MCF7 breast) [µM] | TGI (HS 578T breast) [µM] | TGI (IGROV1 ovarian) [µM] | TGI (NCI/ADR-RES ovarian) [µM] | TGI (K-562 leukemia) [µM] | TGI (SK-MEL-28 melanoma) [µM] | TGI (SK-MEL-2 melanoma) [µM] | TGI (SR leukemia) [µM] | TGI (MDA-MB-231 breast) [µM] | TGI (MOLT-4 leukemia) [µM] | TGI (MDA-N) [µM] | TGI (KM12 colon) [µM] | TGI (SF-539 CNS) [µM] | TGI (A498 renal) [µM]
1 | CCOC(=O)n1[nH]c(=O)n(-c2ccccc2)c1=O | > 100 | > 100 | > 100 | > 100 | > 100 | > 100 | > 100 | > 100 | > 100 | > 100 | > 100 | > 100 | > 100 | > 100 | > 100 | > 100 | > 100 |  | 
2 | CCCCCC(O)[C@H]1C(=O)C[C@@H](O[Si](C)(C)C(C)(C)C)[C@@H]1/C=C/CCOCc1ccccc1 (stereo partly specified) | 38.4 | 43 | 26.4 | 22.5 | > 100 | > 54.7 | 26.4 | 25.6 | 29.3 | > 59.4 | 31 | 31.2 | > 62.9 | 61.8 | > 29.7 | > 63.9 | 17.2 | 29.5 | 39.9
3 | C[C@]12CCC(=O)C=C1CC[C@@H]1[C@@H]2CC[C@]2(C)C(=O)[C@H](n3ccnc3)C[C@@H]12 | > 100 | > 100 | > 100 | > 100 | > 100 | > 100 | > 100 | > 100 | > 100 | > 100 | > 100 | > 100 | > 100 | > 100 | > 100 | > 100 | > 100 | > 100 | > 100
4 | Nc1ncnc2c1ncn2C1C=CC(CP(=O)(O)O)C1 (stereo unspecified) | > 100 | > 100 | > 100 | > 100 |  | > 100 | > 100 | > 100 | > 100 |  | > 100 | > 100 | > 100 | > 100 | > 100 | > 100 | > 100 | > 100 | 
5 | CCOC(=O)c1sc2nc(SC)nc3c2c1N=CN3c1ccccc1Cl | > 100 | > 100 | > 100 | > 100 | > 100 | > 100 | 52.3 | > 100 | > 100 | > 100 | > 100 | > 100 | 89.9 | > 100 | > 100 | > 100 | > 100 |  | 56.3
6 | COC(=O)C1=NN2c3ccccc3C(=O)OCCC2(C)C1 (stereo unspecified) | > 100 | > 100 |  | > 100 | > 100 | > 100 | > 100 | > 100 | > 100 | > 100 | > 100 | > 100 | > 100 | > 100 | > 100 | > 100 | > 100 | > 100 | > 100
7 | O=C1CC(CC(O)C(O)C(O)CO)CC(=O)N1 (stereo unspecified) | > 100 | > 100 | > 100 | > 100 | > 100 | > 100 | > 100 | > 100 | > 100 | > 100 | > 100 |  | > 100 | > 100 | > 100 | > 100 | > 100 | > 100 | > 100
8 | COc1ccc(C(=O)N2CCc3c([nH]c4ccccc34)C2C(=O)O)o1 (stereo unspecified) | > 10 |  | > 10 | > 10 | > 10 | > 10 | > 10 | > 10 | > 10 | > 10 | > 10 |  | > 10 | > 10 | > 10 | > 10 | > 10 | > 10 | > 10
9 | Cc1cc2c(c(C=Nc3ccc([N+](=O)[O-])cc3)c1)OC1(C=C2)Oc2ccccc2C(=O)N1C (stereo unspecified) | 46.2 | 27.1 | 42.4 | 36.3 | > 100 | 46 | > 100 | 56.6 | 49.1 | 91.5 | 44.8 | 57.9 | 55.3 | 45 | 35 | > 100 | 46.2 |  | 61.6
10 | C=CC1ON(C)CCc2cc(OC)c(OC)cc21 (stereo unspecified) | > 100 | > 100 | > 100 | > 100 | > 100 | > 100 | > 100 | > 100 | > 100 | > 100 | > 100 |  | > 100 | > 100 | > 100 | > 100 | > 100 | > 100 | > 100
11 | CC1(C)C=C(/C=N/Nc2ccc([N+](=O)[O-])cc2)C(C#N)=C(O)C1(C#N)C#N | > 100 | > 100 | > 100 | > 100 | > 100 | > 100 | > 100 | > 100 | > 100 | > 100 | > 100 | > 100 | > 100 | > 100 | > 100 | > 100 | > 100 | > 100 | 
12 | O=C(NC1CCC(=O)N1C(=O)OCc1ccccc1)OCc1ccccc1 (stereo unspecified) | > 100 |  | > 100 | > 100 |  | > 100 | > 100 | > 100 | > 100 | > 100 | > 100 | > 100 | > 100 | > 100 | > 100 | > 100 | > 100 | > 100 | 
13 | Cc1ccc(S(=O)(=O)OC2=C/C(=N\c3onc(C)c3C)c3ccccc3C2=O)cc1 | 37.4 | 37.9 | 34.4 | > 100 | > 100 | 33.5 | > 100 |  | 77.1 | 18.9 | > 100 | 26 | > 100 | 41.6 | 24.2 | > 100 | 43 | 79 | > 100
14 | c1ccc(C2C3=C(CCCC3)Nc3nc4cc5ccccc5cc4n32)cc1 (stereo unspecified) | > 100 | > 100 | > 100 | > 100 | > 100 | > 100 | > 100 | > 100 | > 100 | > 100 | > 100 | > 100 | > 100 | > 100 | > 100 | > 100 | > 100 | > 100 | > 100
15 | CC(=O)Nc1ccc(C(=O)NN2C(=O)C(Cl)C2c2cc(Br)ccc2O)cc1 (stereo unspecified) | > 100 |  | > 100 | > 100 | > 54.2 | > 100 | > 100 | > 100 | > 100 | > 100 | > 100 | > 100 | > 100 | > 100 | > 100 | > 100 | > 100 | > 91.9 | 
16 | COC(=O)[C@@H]1C[C@H]([Se]c2ccccc2)CN1S(=O)(=O)c1ccc(C)cc1 | > 100 | > 100 | > 100 | > 100 | > 100 | > 100 | > 100 | > 100 | > 100 | > 100 | > 100 | > 100 | > 100 | > 100 | > 100 | > 100 | > 100 | > 100 | > 100
17 | Cc1cccc(N=Nc2c(C)nn(C(=O)CC(=O)Nc3ccccc3)c2C)c1 | > 100 | > 100 |  | > 100 | > 100 | > 100 | > 100 | > 100 | > 100 |  | > 100 | > 100 | > 100 | > 100 | > 100 | > 100 | > 100 | > 100 | > 100
18 | CN(c1ccccc1)S(=O)(=O)c1ccccc1[N+](=O)[O-] | > 100 | > 100 | > 100 | > 100 | > 100 | > 100 | > 100 | > 100 | > 100 | > 100 | > 100 | > 100 | > 100 | > 100 | > 100 | > 100 | > 100 | > 100 | 
19 | CCc1ccc(Nc2cc(=O)[nH]c(SCc3ccccc3)n2)cc1 | > 100 | > 100 | > 100 | > 100 | > 100 | > 100 | > 100 | > 100 | > 100 | > 100 |  | > 100 | > 100 | > 100 | > 100 | > 100 | > 100 | > 100 | > 100
20 | O=C1c2cccnc2S(=O)N1Cc1ccccc1 (stereo unspecified) | > 100 |  | > 100 | > 100 |  | > 100 | > 100 | > 100 | > 100 | > 100 | > 100 |  | > 100 | > 100 | > 100 | > 100 | > 100 | > 100 | > 100
21 | CCOC(=O)C(NC(=O)c1ccccc1)(Nc1ccc(S(=O)(=O)Nc2nc(C)cc(C)n2)cc1)C(F)(F)F (stereo unspecified) | > 100 | > 100 | > 100 | > 100 | > 100 | > 100 | > 100 | > 100 | > 100 | > 100 | > 100 | > 100 | > 100 | > 100 | > 100 | > 100 | > 100 | > 100 | 
22 | Cn1c(=O)c2c(no[n+]2[O-])n(C)c1=O | > 100 | > 100 | 84.6 | > 100 |  | > 100 | 64.9 | 58.7 | 46 | > 100 |  | > 100 | > 100 | 48.1 | > 100 | 50.7 | > 100 | > 100 | 48
23 | N#CC1=C(S)N(C2OC(CO)C(O)C(O)C2O)C(c2ccccc2)=CC1c1ccccc1 (stereo unspecified) | > 100 | 86.6 | > 100 | > 100 | > 100 | > 100 | > 100 | > 100 | > 100 | > 100 | > 100 |  | > 100 | > 100 | 86.8 | > 100 | > 100 | > 100 | > 100
24 | CC(=O)OCC1OC(n2c(C)c(N=Nc3ccccc3)c(C)c(C#N)c2=S)C(OC(C)=O)C(OC(C)=O)C1OC(C)=O (stereo unspecified) | > 100 | > 100 | > 100 | > 100 | > 100 | > 100 | 44.8 | > 100 | > 100 | > 100 | > 100 | 62.2 | > 100 | 62.3 | > 100 | > 100 | > 100 | > 100 | 
25 | O=c1[nH]c(-c2cccc(F)c2)nc2ccccc12 | > 92 | > 100 | > 100 | > 100 | > 100 | > 100 | > 78.5 | > 100 | > 100 | > 100 | > 100 | > 100 | > 100 | > 65.9 | > 100 | > 100 | > 100 |  | > 73.2
26 | Cc1cn(C2CC(O)C(Cn3cc(Cn4ncc(=O)[nH]c4=O)nn3)O2)c(=O)[nH]c1=O (stereo unspecified) | > 100 | > 100 | > 100 | > 100 | > 100 | > 100 | > 100 | > 100 | > 100 |  | > 100 | > 100 | > 100 | > 100 | > 100 | > 100 | > 100 | > 100 | > 100
